The subject of experiment [1] is OVA-sensitized mouse asthma model. Briefly: OVA-sensitized mouse asthma model, number of inflammatory cells in BALF. To be noted: subcutaneous; for neutrophil number in BALF: FIG. 2. The class given is in vivo, mouse (C57/BL6). From the text:
An asthma reaction was induced using a wild-type mouse (C57/BL6) that had previously been sensitized with an antigen of OVA twice (day 0 and day 12) by inhalation sensitization at intervals of four days a total of three times (day 22, day 26, and day 30). Subsequently, the change in the number of inflammatory cells in BALF that was an indicator of an allergic reaction was examined.
That is, a compound having an agonistic activity to EP3 receptor is effective in therapy of an allergic disease such as asthma, and a selective agonistic compound to EP3 receptor can be expected to induce a more remarkable therapeutic effect.

Experiment [2] relates to extracted lung of a sensitized wild-type mouse. As to the kind of experiment: Histamine and LT release from extracted lung of sensitized wild-type mouse by in vitro antigen stimulation. As for the experimental part: The inventors of the present invention have studied on involvement of EP3 receptor in allergy reactions using the method already reported in a literature (Science, 287, 2013-(2000)). Specifically, the asthma condition was induced by inhalation of ovalbumin (hereinafter, abbreviated as OVA) in an EP3 receptor-deficient mouse, and the lung condition was analyzed. […] In addition, the suppression of the amount of histamine released from the sensitized lung by the agonist for the EP3 receptor causes only improvement of the portion enhanced by indomethacin. […] The inventors of the present invention have analyzed an EP3 (one of the PGE2 receptor subtypes) gene-deficient mouse and have already elucidated that EP3 is involved in crisis of an allergic reaction from the results of significant increase in the amount of infiltrated eosinophilics in a bronchoalveolar lavage fluid (hereinafter, abbreviated as BALF), and more significant increase in the number of infiltrated cells into a lung tissue and in the amount of Th2 cytokine in the mouse. Furthermore, they have found out that the amount of a chemical mediator that is released by in vitro antigenic stimulation of the lung of a sensitized wild-type mouse is increased by indomethacin which is a PGH-producing enzyme (cyclooxygenase) inhibitor and is suppressed by an agonist for EP3 receptor. […]

[3] abbreviates: 10 μg/kg twice a day, day 22 to day 33, FIG. 1.
Setting [4] is: 10 μg/kg twice a day, day 22 to day 33.

In the case of `CCCCC[C@@H](/C=C/[C@H]1[C@H](OC)CC(=O)[C@@H]1C/C=C\CCCC(=O)O)OC` [compound (I-1), 11α,15α-dimethoxy-9-oxoprosta-5Z,13E-dienoic acid], the “eosinophil number in BALF” value in experiment [1] (setting [3]) is listed as “decreased significantly”. Further, in experiment [1] (setting [4]), the “neutrophil number in BALF” value was “decreased significantly”.

For the compound `CCCCC(C)(C)[C@H](O)/C=C/[C@H]1[C@H](O)CC(=O)[C@@H]1C/C=C\CCCC(=O)O` [dmPGE2, 16,16-dimethyl PGE2], the “eosinophil number in BALF” value is “no significant effect” in experiment [1] (setting [3]) and “significant effect” in experiment [1] (200 μg/kg twice a day, FIG. 3). The “neutrophil number in BALF” value in experiment [1] (setting [4]) is listed as “no significant effect”.

`COc1ccc2c(c1)c(CC(=O)O)c(C)n2C(=O)c1ccc(Cl)cc1` [indomethacin]: in experiment [2], the “amount of LT released from the extracted lung” value is on record as “increase” and the “amount of histamine released from the extracted lung” value was “increase”.

(Values after patent US20060128810A1, “Remedies for allergic diseases” (Kyoto University, priority 2002, published 2006).)
